Assay results as given in patent publication US8562949B2, “Radiolabeled dihydrotetrabenazine derivatives and their use as imaging agents” (The Trustees of the University of Pennsylvania, priority 2006, dated 2013).
Where two headings read alike, the source gives them in different places.

Experiments:
[1] = tested on: T1, VMAT-2; experiment: Blocking of pancreatic signal by DTBZ in rats; assay type: in vivo; conditions: rat
T1 construct: from tissue; host or cells: living rats; organs dissected after iv injection
Protocol: (§1) Rats were pretreated with non-radiolabeled DBTZ (3.8 mg/kg) five minutes prior to injection with (+)-6b.

[2] = Blocking of pancreatic signal by DTBZ in rats; assay type: in vivo; conditions: rat
Protocol: as §1

[3] = Metabolic stability in mouse brain; assay type: in vivo, mice; conditions: mouse striatum, 30 minutes post-injection, ethyl acetate extraction/TLC
Protocol: Two mice were injected with 200 μCi [^18F]FP-(+)-DTBZ and sacrificed at 30 minutes post-injection. The brains were removed and the striatal regions were dissected out. The striatal homogenates (prepared in PBS, 10% w/v) were extracted with 0.5 mL of ethyl acetate in the presence of a small amount of carrier (10 μg of […]). Extraction was repeated three times and the ethyl acetate layers and the buffer layers were counted separately to determine the percent extracted. […] A control sample ([^18F]FP-(±)-DTBZ mixed with normal mouse striatal homogenates in situ) was carried out in parallel for comparison.

[4] = Biodistribution in normal rats; assay type: in vivo; conditions: IV
Protocol: While under isoflurane anesthesia, 0.15 mL of a 0.1% bovine serum albumin solution containing [^18F]tracers (10-20 μCi) were injected directly into the tail vein of ICR mice (22-25 g, male) The mice (n=3 for each time point) were sacrificed by cervical dislocation at indicated time points post injection. The organs of interest were removed and weighed, and the radioactivity was counted with an automatic gamma counter. The percentage dose per organ was calculated by a comparison of the tissue counts to suitably diluted aliquots of the injected material. Total activities of blood were calculated under the assumption that they were 7% of the total body weight. The % dose/g of samples was calculated by comparing the sample counts with the count of the diluted initial dose.
The ability of (+)-6b to target the pancreas was shown in normal rats. Using the methods described above under Example 6, the biodistribution of (+)-6b after IV injection in twelve normal rats was measured. For the organs studied, the pancreas had the highest % dose/gram within 30 minutes after injection. Also shown are data indicating distribution in the striatum, which is another area rich in VMAT-2 receptors.

[5] = target: VMAT2 sites (Mus musculus, UniProt Q8BRU6); conditions: lesioned mice
Source text: Thirty minutes after injection, the mice were sacrificed and the brains removed. Different regions corresponding to striatum (ST), hippocampus (HP), cerebellum (CB), and cortex (CX) were dissected. In particular, the lesioned region was separated from non-lesioned area of the striatal tissues. Samples were counted in a gamma counter with two different window settings for F-18 and I-125, respectively, to obtain the regional distribution of each tracer.
To measure the degree of lesion, a dual-isotope experiment comparing the striatal uptakes in lesioned vs. unlesioned sites using [^18F]FP-DTBZ was performed. A marker [^125I]IPT (selective for dopamine transporters) was injected simultaneously.

[6] = Baboon microPET imaging (FIG. 7); assay type: in vivo; conditions: iv, 7 mCi, 70-90 min
[7] = Human radiation dosimetry estimates from mouse biodistribution; conditions: adult male model
Source text: From the organ biodistribution data in Table 4 of Example 7, human radiation dosimetry estimates were calculates. In the mass based extrapolation, the concentration in the animal organs is converted to a concentration in human organs by multiplying the animal concentration by a ratio of the total body weight of the animals and humans (Kirschner, et al., 1975). Then the percent in the human organs is derived using organ masses taken from a standard model of the human body for adult males (Cristy and Eckerman, 1987). Data were fit using the SAAM II software (Foster and Barrett, 1999). Time integrals of activity were calculated and converted to residence times (Loevinger, et al., 1988); organ residence times were entered into the OLIND/EXM software (STabin, et al., 2005) using the adult male model. No excretion of activity was assumed; any activity not accounted for was considered to be uniformly distributed throughout the remainder of the body or removed only by physical decay. […] The estimated effective dose (0.047 rem/mCi) also compares favorably to radiation doses received with other approved radiopharmaceuticals.

Chain of VMAT2 sites (Q8BRU6 whole entry): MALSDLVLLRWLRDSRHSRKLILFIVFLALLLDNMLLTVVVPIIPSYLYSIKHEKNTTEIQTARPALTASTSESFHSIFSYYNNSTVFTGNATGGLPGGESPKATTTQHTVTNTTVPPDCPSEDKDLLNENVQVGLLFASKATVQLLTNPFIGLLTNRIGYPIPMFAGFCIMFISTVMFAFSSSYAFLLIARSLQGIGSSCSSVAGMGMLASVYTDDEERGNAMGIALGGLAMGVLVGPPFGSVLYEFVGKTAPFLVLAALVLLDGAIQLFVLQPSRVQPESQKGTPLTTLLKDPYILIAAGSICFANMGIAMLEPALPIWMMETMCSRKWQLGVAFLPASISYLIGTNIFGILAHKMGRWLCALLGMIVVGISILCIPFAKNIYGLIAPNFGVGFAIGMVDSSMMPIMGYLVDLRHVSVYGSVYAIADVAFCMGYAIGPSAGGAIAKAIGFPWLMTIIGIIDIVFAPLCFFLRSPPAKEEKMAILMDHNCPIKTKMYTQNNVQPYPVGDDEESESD

Compound: COc1cc2c(cc1OCCC[18F])CCN1C[C@@H](CC(C)C)[C@H](O)C[C@H]21 [[^18F]-(+)-6b]
- tissue uptake at 30 min ([1]; cerebellum, 30 min Blocking, DTBZ 3.8 mg/kg pretreatment, read-out: Regional Brain Distribution Cerebellum): 0.25 ± 0.03 %ID/g
- tissue uptake at 30 min ([1]; cerebellum, 30 min Control, read-out: Regional Brain Distribution Cerebellum): 0.36 %ID/g
- tissue uptake at 30 min ([1]; pancreas, 30 min Blocking, DTBZ 3.8 mg/kg pretreatment, read-out: Pancreas): 3.1 ± 0.3 %ID/g
- tissue uptake at 30 min ([1]; pancreas, 30 min Control, read-out: Pancreas): 4.39 ± 0.64 %ID/g
- tissue uptake at 30 min ([2]; blood, 30 min Blocking, DTBZ 3.8 mg/kg pretreatment, read-out: Blood): 0.32 ± 0.04 %ID/g
- tissue uptake at 30 min ([2]; blood, 30 min Control, read-out: Blood): 0.2 ± 0.01 %ID/g
- tissue uptake at 30 min ([2]; cortex, 30 min Blocking, DTBZ 3.8 mg/kg pretreatment, read-out: Regional Brain Distribution Cortex): 0.26 ± 0.05 %ID/g
- tissue uptake at 30 min ([2]; cortex, 30 min Control, read-out: Regional Brain Distribution Cortex): 0.36 %ID/g
- tissue uptake at 30 min ([2]; hippocampus, 30 min Blocking, DTBZ 3.8 mg/kg pretreatment, read-out: Regional Brain Distribution Hippocampus): 0.25 ± 0.03 %ID/g
- tissue uptake at 30 min ([2]; hippocampus, 30 min Control, read-out: Regional Brain Distribution Hippocampus): 0.54 ± 0.03 %ID/g
- tissue uptake at 30 min ([2]; hypothalamus, 30 min Blocking, DTBZ 3.8 mg/kg pretreatment, read-out: Regional Brain Distribution Hypothalamus): 0.25 ± 0.04 %ID/g
- tissue uptake at 30 min ([2]; hypothalamus, 30 min Control, read-out: Regional Brain Distribution Hypothalamus): 1.2 ± 0.07 %ID/g
- tissue uptake at 30 min ([2]; striatum, 30 min Blocking, DTBZ 3.8 mg/kg pretreatment, read-out: Regional Brain Distribution Striatum): 0.27 ± 0.02 %ID/g
- tissue uptake at 30 min ([2]; striatum, 30 min Control, read-out: Regional Brain Distribution Striatum): 1.94 ± 0.03 %ID/g
- degradation [3]: less than 5%
- Biodistribution Blood ([4]; 2 min): 0.26 ± 0.03 % dose/g
- Biodistribution Brain ([4]; 2 min): 0.71 ± 0.05 % dose/g
- Biodistribution Cerebellum ([4]; 2 min): 0.63 ± 0.03 % dose/g
- Biodistribution Cortex ([4]; 2 min): 0.65 ± 0.02 % dose/g
- Biodistribution Heart ([4]; 2 min): 0.71 ± 0.07 % dose/g
- Biodistribution Hippocampus ([4]; 2 min): 0.68 ± 0.07 % dose/g
- Biodistribution Kidney ([4]; 2 min): 2.10 ± 0.17 % dose/g
- Biodistribution Liver ([4]; 2 min): 3.53 ± 0.56 % dose/g
- Biodistribution Lung ([4]; 2 min): 0.94 ± 0.04 % dose/g
- Biodistribution Muscle ([4]; 2 min): 0.14 ± 0.03 % dose/g
- Biodistribution Pancreas ([4]; 2 min): 2.51 ± 0.22 % dose/g
- Biodistribution Skin ([4]; 2 min): 0.23 ± 0.05 % dose/g
- Biodistribution Spleen ([4]; 2 min): 1.46 ± 0.15 % dose/g
- Biodistribution Striatum ([4]; 2 min): 1.52 ± 0.20 % dose/g
- Biodistribution Blood ([4]; 30 min): 0.23 ± 0.06 % dose/g
- Biodistribution Brain ([4]; 30 min): 0.62 ± 0.08 % dose/g
- Biodistribution Cerebellum ([4]; 30 min): 0.40 ± 0.04 % dose/g
- Biodistribution Cortex ([4]; 30 min): 0.44 ± 0.06 % dose/g
- Biodistribution Heart ([4]; 30 min): 0.41 ± 0.03 % dose/g
- Biodistribution Hippocampus ([4]; 30 min): 0.61 ± 0.12 % dose/g
- Biodistribution Kidney ([4]; 30 min): 1.06 ± 0.06 % dose/g
- Biodistribution Liver ([4]; 30 min): 2.82 ± 0.24 % dose/g
- Biodistribution Lung ([4]; 30 min): 0.69 ± 0.03 % dose/g
- Biodistribution Muscle ([4]; 30 min): 0.17 ± 0.02 % dose/g
- Biodistribution Pancreas ([4]; 30 min): 5.50 ± 0.97 % dose/g
- Biodistribution Skin ([4]; 30 min): 0.28 ± 0.01 % dose/g
- Biodistribution Spleen ([4]; 30 min): 1.03 ± 0.18 % dose/g
- Biodistribution Striatum ([4]; 30 min): 2.25 ± 0.48 % dose/g
- Biodistribution Blood ([4]; 60 min): 0.18 ± 0.02 % dose/g
- Biodistribution Brain ([4]; 60 min): 0.42 ± 0.04 % dose/g
- Biodistribution Cerebellum ([4]; 60 min): 0.28 ± 0.04 % dose/g
- Biodistribution Cortex ([4]; 60 min): 0.27 ± 0.07 % dose/g
- Biodistribution Heart ([4]; 60 min): 0.30 ± 0.10 % dose/g
- Biodistribution Hippocampus ([4]; 60 min): 0.36 ± 0.08 % dose/g
- Biodistribution Kidney ([4]; 60 min): 0.84 ± 0.09 % dose/g
- Biodistribution Liver ([4]; 60 min): 2.47 ± 0.30 % dose/g
- Biodistribution Lung ([4]; 60 min): 0.54 ± 0.14 % dose/g
- Biodistribution Muscle ([4]; 60 min): 0.13 ± 0.01 % dose/g
- Biodistribution Pancreas ([4]; 60 min): 4.98 ± 0.24 % dose/g
- Biodistribution Skin ([4]; 60 min): 0.23 ± 0.04 % dose/g
- Biodistribution Spleen ([4]; 60 min): 0.83 ± 0.18 % dose/g
- Biodistribution Striatum ([4]; 60 min): 1.85 ± 0.26 % dose/g
- Biodistribution Blood ([4]; 120 min): 0.12 ± 0.03 % dose/g
- Biodistribution Brain ([4]; 120 min): 0.35 ± 0.02 % dose/g
- Biodistribution Cerebellum ([4]; 120 min): 0.20 ± 0.01 % dose/g
- Biodistribution Cortex ([4]; 120 min): 0.20 ± 0.06 % dose/g
- Biodistribution Heart ([4]; 120 min): 0.22 ± 0.01 % dose/g
- Biodistribution Hippocampus ([4]; 120 min): 0.23 ± 0.03 % dose/g
- Biodistribution Kidney ([4]; 120 min): 0.55 ± 0.06 % dose/g
- Biodistribution Liver ([4]; 120 min): 1.47 ± 0.13 % dose/g
- Biodistribution Lung ([4]; 120 min): 0.35 ± 0.03 % dose/g
- Biodistribution Muscle ([4]; 120 min): 0.10 ± 0.01 % dose/g
- Biodistribution Pancreas ([4]; 120 min): 2.76 ± 0.61 % dose/g
- Biodistribution Skin ([4]; 120 min): 0.16 ± 0.02 % dose/g
- Biodistribution Spleen ([4]; 120 min): 0.48 ± 0.04 % dose/g
- Biodistribution Striatum ([4]; 120 min): 1.42 ± 0.54 % dose/g
- correlation (r) of lesioned-site uptake with [125I]IPT data [5]: 0.95
- microPET uptake [6]: no indication of skull (bone) uptake
- human radiation dose, liver and bone surface [7]: around 0.11 rem/mCi
- human radiation dose, most organs [7]: 0.04-0.06 rem/mCi
